These results are taken from patent US20100292150A1, “Treatment of Menorrhagia with Aromatase Inhibitor” (MEDITRINA PHARMACEUTICALS, INC., priority 2007, published 2010).

The subject of data set [1] is Women with menorrhagia. Kind of data set: Daily menstrual bleeding severity score in women receiving anastrozole for 26 days vs placebo. In kind it is in vivo. An excerpt:
(§1) Women with menorrhagia were enrolled in the study and divided into two groups—one as Treatment Group and the other as Control Group. Administering of anastrozole to the women in the Treatment Group started on the second day of the menstrual cycle and lasted for 26 days. In some cases, the administration started on the third day due to site scheduling limitations. Conversely, the women in the Control Group received placebo during the same period. Data on the mean menstrual bleeding severity score were recorded on a daily basis according to the following categories of vaginal bleeding: 0=none; 1=spotting; 2=mild bleeding; 3=moderate bleeding; and 4=heavy bleeding.
In the Control Group, within 6 days, the average score was down to about zero. Over the next 20 days, the fluctuations in menstrual bleeding severity would also be considered typical in that some women experience “breakthrough bleeding” which was reflected in the deviation from zero that would be expected in models of normal cycles, but was not reflected in reality. This was particularly notable during the second half of the menstrual cycle.
The observation above was contrasted by women who received anastrozole for 26 consecutive days (Treatment Group). […]

The test system of data set [2] is healthy premenopausal women. The note with it: 5, 10, 15 and 20 mg, single and multiple dose; 26 healthy premenopausal women; cited from earlier work.
For data set [3], the system named is Women with menorrhagia. The data set can be described thus: Safety profile of anastrozole compared to placebo in the same study. The settings on record: 26 days of anastrozole. It counts as in vivo.
Excerpt: as §1
The observation above was contrasted by women who received anastrozole for 26 consecutive days (Treatment Group). On Study Day 1, which corresponds to Cycle Day 2 as with the Control Group, the women were administered 20 mg of anastrozole in the clinic office and then […] for the remaining 25 days.

For data set [4] the following is noted: marketed in the US for long-term chronic breast cancer therapy (five years and beyond); cited from earlier work.

`CC(C)(C#N)c1cc(Cn2cncn2)cc(C(C)(C)C#N)c1` [anastrozole]: the “reported bleeding over the remaining days of treatment” value in data set [1] (20 mg on Study Day 1, then 10 mg/day for remaining 25 days, contrasted with placebo) is “no bleeding or spotting reported until the very end of the cycle”. Also, the “mean bleeding severity at the start of the treatment interval” value in data set [1] (score 0=none to 4=heavy bleeding, Study Day 1 = Cycle Day 2, 20 mg anastrozole on day 1) is approximately 3. Besides, the adverse events entry in data set [2] was “no severe, serious, or otherwise significant adverse events”. Further, the safety liabilities entry in data set [3] is “does not appear to have any significant safety liabilities”. The general safety entry in data set [4] is “generally accepted as safe drugs”.
Consider `C=C1C[C@@H]2[C@H](CC[C@]3(C)C(=O)CC[C@@H]23)[C@@]2(C)C=CC(=O)C=C12` [exemestane], for which, in data set [4], the general safety entry is recorded as “generally accepted as safe drugs”.
Regarding `N#Cc1ccc(C(c2ccc(C#N)cc2)n2cncn2)cc1` [letrozole], the general safety result in data set [4] was “generally accepted as safe drugs”.
